Measured values as given in PubChem BioAssay (NCI).
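In this assay, cells in 96-well plates receive the compound at five concentrations for 48 hours. Endpoints are linearly interpolated between the surrounding concentrations. TGI: total growth inhibition.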

Columns and labels:
Experiment in all cases: NCI tumour cell line growth inhibition, 48 h
A549 NSCLC = system: A549 NSCLC
UACC-257 melanoma = system: UACC-257 melanoma
A498 renal = system: A498 renal
HOP-62 NSCLC = system: HOP-62 NSCLC
MDA-N = system: MDA-N
DU-145 prostate = system: DU-145 prostate
HCC-2998 colon = system: HCC-2998 colon
CAKI-1 renal = system: CAKI-1 renal
TK-10 renal = system: TK-10 renal
SW-620 colon = system: SW-620 colon
HOP-92 NSCLC = system: HOP-92 NSCLC
SR leukemia = system: SR leukemia
UACC-62 melanoma = system: UACC-62 melanoma
CCRF-CEM leukemia = system: CCRF-CEM leukemia
SK-MEL-5 melanoma = system: SK-MEL-5 melanoma
SK-MEL-28 melanoma = system: SK-MEL-28 melanoma
786-0 renal = system: 786-0 renal
NCI/ADR-RES ovarian = system: NCI/ADR-RES ovarian
SNB-75 CNS = system: SNB-75 CNS
K-562 leukemia = system: K-562 leukemia
PC-3 prostate = system: PC-3 prostate
SN12C renal = system: SN12C renal
MDA-MB-435 = system: MDA-MB-435
HS 578T breast = system: HS 578T breast
NCI-H23 lung = system: NCI-H23 lung
RPMI-8226 leukemia = system: RPMI-8226 leukemia
HCT-116 colon = system: HCT-116 colon
ACHN renal = system: ACHN renal
T-47D breast = system: T-47D breast
SNB-19 CNS = system: SNB-19 CNS
IGROV1 ovarian = system: IGROV1 ovarian
HCT-15 colon = system: HCT-15 colon
SF-268 CNS = system: SF-268 CNS
LOX IMVI melanoma = system: LOX IMVI melanoma
COLO 205 colon = system: COLO 205 colon
RXF 393 renal = system: RXF 393 renal
OVCAR-4 ovarian = system: OVCAR-4 ovarian
NCI-H460 lung = system: NCI-H460 lung
MCF7 breast = system: MCF7 breast
SK-MEL-2 melanoma = system: SK-MEL-2 melanoma
OVCAR-3 ovarian = system: OVCAR-3 ovarian
UO-31 renal = system: UO-31 renal
MOLT-4 leukemia = system: MOLT-4 leukemia
BT-549 breast = system: BT-549 breast
NCI-H226 lung = system: NCI-H226 lung
MDA-MB-231 breast = system: MDA-MB-231 breast
OVCAR-8 ovarian = system: OVCAR-8 ovarian
M14 melanoma = system: M14 melanoma
OVCAR-5 ovarian = system: OVCAR-5 ovarian
EKVX NSCLC = system: EKVX NSCLC
U251 CNS = system: U251 CNS
MALME-3M melanoma = system: MALME-3M melanoma
SK-OV-3 ovarian = system: SK-OV-3 ovarian
SF-539 CNS = system: SF-539 CNS
HT29 colon = system: HT29 colon
HL-60(TB) leukemia = system: HL-60(TB) leukemia
SF-295 CNS = system: SF-295 CNS
KM12 colon = system: KM12 colon
NCI-H522 lung = system: NCI-H522 lung

Compound `Cc1ccc(-c2csc(=Nc3ccccc3)n2NC(=O)c2ccncc2)cc1` has a TGI (A549 NSCLC) greater than 100 µM, a TGI (UACC-257 melanoma) greater than 100 µM and a TGI (A498 renal) greater than 100 µM. It also gave a TGI (HOP-62 NSCLC) greater than 100 µM, a TGI (MDA-N) greater than 100 µM and a TGI (DU-145 prostate) greater than 100 µM. The TGI (HCC-2998 colon) was greater than 100 µM, the TGI (CAKI-1 renal) was greater than 100 µM and the TGI (TK-10 renal) was greater than 100 µM. The TGI (SW-620 colon) was greater than 100 µM, the TGI (HOP-92 NSCLC) was greater than 100 µM and the TGI (SR leukemia) was greater than 100 µM. The TGI (UACC-62 melanoma) was 70.6 µM, the TGI (CCRF-CEM leukemia) was greater than 67.5 µM and the TGI (SK-MEL-5 melanoma) was 34.8 µM. It also gave a TGI (SK-MEL-28 melanoma) greater than 100 µM, a TGI (786-0 renal) greater than 100 µM and a TGI (NCI/ADR-RES ovarian) greater than 90.5 µM. It also gave a TGI (SNB-75 CNS) greater than 88.2 µM, a TGI (K-562 leukemia) of 36.1 µM and a TGI (PC-3 prostate) greater than 100 µM. The TGI (SN12C renal) was greater than 100 µM, the TGI (MDA-MB-435) was greater than 100 µM and the TGI (HS 578T breast) was greater than 100 µM. It also gave a TGI (NCI-H23 lung) greater than 76.1 µM, a TGI (RPMI-8226 leukemia) of 75.8 µM and a TGI (HCT-116 colon) greater than 100 µM. It also gave a TGI (ACHN renal) greater than 100 µM, a TGI (T-47D breast) of 58.7 µM and a TGI (SNB-19 CNS) greater than 100 µM. It also gave a TGI (IGROV1 ovarian) greater than 100 µM, a TGI (HCT-15 colon) greater than 100 µM and a TGI (SF-268 CNS) greater than 100 µM. For the same compound, the TGI (LOX IMVI melanoma) was greater than 100 µM, the TGI (COLO 205 colon) was 82.5 µM and the TGI (RXF 393 renal) was greater than 100 µM. For the same compound, the TGI (OVCAR-4 ovarian) was greater than 100 µM, the TGI (NCI-H460 lung) was greater than 100 µM and the TGI (MCF7 breast) was greater than 100 µM. For the same compound, the TGI (SK-MEL-2 melanoma) was 96.1 µM, the TGI (OVCAR-3 ovarian) was greater than 100 µM and the TGI (UO-31 renal) was greater than 100 µM. For the same compound, the TGI (MOLT-4 leukemia) was greater than 76.8 µM, the TGI (BT-549 breast) was greater than 91.8 µM and the TGI (NCI-H226 lung) was greater than 75.2 µM. For the same compound, the TGI (MDA-MB-231 breast) was greater than 100 µM, the TGI (OVCAR-8 ovarian) was greater than 90.9 µM and the TGI (M14 melanoma) was greater than 100 µM. For the same compound, the TGI (OVCAR-5 ovarian) was greater than 100 µM, the TGI (EKVX NSCLC) was greater than 100 µM and the TGI (U251 CNS) was greater than 31.6 µM. The TGI (MALME-3M melanoma) was greater than 100 µM, the TGI (SK-OV-3 ovarian) was greater than 100 µM and the TGI (SF-539 CNS) was greater than 100 µM. It also gave a TGI (HT29 colon) of 60 µM, a TGI (HL-60(TB) leukemia) greater than 69.2 µM and a TGI (SF-295 CNS) of 74.9 µM. It also gave a TGI (KM12 colon) greater than 100 µM.

`NC(N)=Nc1ccc(CC(N)NCC(=O)O)cc1` (centres undefined) showed a TGI (A549 NSCLC) greater than 25 µM, a TGI (UACC-257 melanoma) greater than 25 µM and a TGI (A498 renal) greater than 25 µM. For the same compound, the TGI (HOP-62 NSCLC) was greater than 25 µM, the TGI (MDA-N) was greater than 25 µM and the TGI (DU-145 prostate) was greater than 25 µM. For the same compound, the TGI (HCC-2998 colon) was greater than 25 µM, the TGI (CAKI-1 renal) was greater than 25 µM and the TGI (TK-10 renal) was greater than 25 µM. The TGI (SW-620 colon) was greater than 25 µM, the TGI (HOP-92 NSCLC) was greater than 25 µM and the TGI (SR leukemia) was greater than 25 µM. For the same compound, the TGI (UACC-62 melanoma) was greater than 25 µM, the TGI (CCRF-CEM leukemia) was greater than 25 µM and the TGI (NCI-H522 lung) was greater than 25 µM. It also gave a TGI (SK-MEL-5 melanoma) greater than 25 µM, a TGI (SK-MEL-28 melanoma) greater than 25 µM and a TGI (786-0 renal) greater than 25 µM. It also gave a TGI (NCI/ADR-RES ovarian) greater than 25 µM, a TGI (SNB-75 CNS) greater than 25 µM and a TGI (K-562 leukemia) greater than 25 µM. The TGI (PC-3 prostate) was greater than 25 µM, the TGI (SN12C renal) was greater than 25 µM and the TGI (MDA-MB-435) was greater than 25 µM. The TGI (HS 578T breast) was greater than 25 µM, the TGI (NCI-H23 lung) was greater than 25 µM and the TGI (RPMI-8226 leukemia) was greater than 25 µM. It also gave a TGI (HCT-116 colon) greater than 25 µM, a TGI (ACHN renal) greater than 25 µM and a TGI (T-47D breast) greater than 25 µM. The TGI (IGROV1 ovarian) was greater than 25 µM, the TGI (HCT-15 colon) was greater than 25 µM and the TGI (SF-268 CNS) was greater than 25 µM. For the same compound, the TGI (LOX IMVI melanoma) was greater than 25 µM, the TGI (COLO 205 colon) was greater than 25 µM and the TGI (RXF 393 renal) was greater than 25 µM. It also gave a TGI (OVCAR-4 ovarian) greater than 25 µM, a TGI (MCF7 breast) greater than 25 µM and a TGI (SK-MEL-2 melanoma) greater than 25 µM. The TGI (OVCAR-3 ovarian) was greater than 25 µM, the TGI (UO-31 renal) was greater than 25 µM and the TGI (MOLT-4 leukemia) was greater than 25 µM. For the same compound, the TGI (BT-549 breast) was greater than 25 µM, the TGI (NCI-H226 lung) was greater than 25 µM and the TGI (MDA-MB-231 breast) was greater than 25 µM. For the same compound, the TGI (OVCAR-8 ovarian) was greater than 25 µM, the TGI (M14 melanoma) was greater than 25 µM and the TGI (OVCAR-5 ovarian) was greater than 25 µM. The TGI (EKVX NSCLC) was greater than 25 µM, the TGI (U251 CNS) was greater than 25 µM and the TGI (MALME-3M melanoma) was greater than 25 µM. The TGI (SK-OV-3 ovarian) was greater than 25 µM, the TGI (HT29 colon) was greater than 25 µM and the TGI (HL-60(TB) leukemia) was greater than 25 µM. The TGI (SF-295 CNS) was greater than 25 µM and the TGI (KM12 colon) was greater than 25 µM.
